Experimental data as given in article PMC4067742, “Direct Observations of Amyloid β Self-Assembly in Live Cells Provide Insights into Differences in the Kinetics of Aβ(1–40) and Aβ(1–42) Aggregation” (Chemistry & Biology, 2014).

System: SH-SY5Y cells
Experiment: dSTORM superresolution imaging of intracellular aggregates
Type: cell-based, human
Settings: 500 nM monomers, fixed cells; for average size of intracellular aggregates (diameter / longest dimension) after 24 hr: pixel counting in dSTORM images, only aggregates above resolution limit (55–70 nm), n = 18–27; for change in size of intracellular aggregates between 24 and 48 hr: pixel counting in dSTORM images (Figure 5B)
Method: To further investigate the nature of the intracellular Aβ(1–40) and Aβ(1–42) aggregates, we used superresolution fluorescence microscopy to analyze their physical appearance. […] Thus, we treated SH-SY5Y cells with 500 nM of ^HF647Aβ(1–40) or 500 nM of ^HF647Aβ(1–42) monomers for periods of 24 and 48 h. Thereafter, the cells were fixed, immersed in switching buffer, and imaged at single-molecule resolution using a homebuilt total internal reflection fluorescence (TIRF) microscope operated under highly inclined illumination ([Tokunaga et al., 2008]) to obtain images from an image plane within the cells. Superresolved images (Figure 5A) of the intracellular ^HF647Aβ(1–40) and ^HF647Aβ(1–42) aggregates were then reconstructed as described in the Experimental Procedures. dSTORM results in a dramatic increase in resolution compared with conventional confocal imaging (Figure S4). In this case, the lateral resolution of our images was calculated to be 55–70 nm using a blind assessment density estimation approach ([Rees et al., 2012]). Features larger than the lateral resolution limit can, therefore, be interpreted with confidence as having approximately the correct size and shape. […] The ^HF647Aβ(1–42) aggregates, by contrast, appear to include both spherical and elongated species, with an average size along their longest dimension of approximately 225 nm (Figure 5B). The observation that, after 24 hr, ^HF647Aβ(1–42) forms intracellular species that are larger than those formed by ^HF647Aβ(1–40) is consistent with the differences in their mean fluorescence lifetimes (Figures 4C, 4D, and 5C). […] Comparison of the FLIM and dSTORM data recorded after 24 and 48 hr indicates a qualitative relationship between aggregate size and HF488 fluorescence lifetime (Figures 5B and 5C), supporting the conclusion that the fluorescence lifetime reflects the nature and abundance of the Aβ amyloid aggregates formed in vivo.
Human neuroblastoma cells (SH-SY5Y) were grown in 1:1 minimal essential medium (MEM) and nutrient mixture F-12 Ham (Sigma-Aldrich) with sodium bicarbonate, including 15% heat-inactivated fetal bovine serum, 1% MEM non-essential amino acids, 2 mM […], 1% penicillin-streptomycin (10,000 U/ml K1), and 0.1% fungizone (amphotericin B, […] K1) (Life Technologies). Cells were plated 1 day prior to experiments in glass-bottomed culture dishes (MatTek) at a density of 50,000 cells/14-mm dish. […]
All dSTORM experiments were carried out using HF647-labeled peptides. Fluorescence images for dSTORM were taken on a Nikon Te-300 Eclipse inverted wide field microscope, with a 100×, 1.49 numerical aperture TIRF objective lens, an Andor iXon 887DV electron-multiplying charge-coupled device camera, and a Semrock fluorescence filter set (LF405/488/561/635-A-00). […]

Row | Substance | average size of intracellular aggregates (diameter / longest dimension) after 24 hr | change in size of intracellular aggregates between 24 and 48 hr
1 | ^HF647Aβ(1–40): Synthetic amyloid β (1–40) peptide labeled at the N terminus with Hilyte Fluor 647, purchased from Anaspec | approximately 160 nm | appear to have increased in size
2 | ^HF647Aβ(1–42): Synthetic amyloid β (1–42) peptide labeled at the N terminus with Hilyte Fluor 647, purchased from Anaspec | approximately 225 nm | no significant change in the size
